Laboratory results: EP0765662A1, “HIV GROWTH INHIBITORY COMPOSITION” (Kochi, Mutsuyuki, priority 1994, dated 1995)

Test system: HIVBRU
Assay: HIV-p24 antigen released from HIV-infected A3.01 cells stimulated with TNF-α
Format: cell-based
Conditions: AZT 2 µg/ml in place of SBA, HIV-infected A3.01 cells
Excerpt: In view of all these test results, it appears that the inhibitory activity of SBA against the replication of HIV-1 is not attributable to that SBA directly acts on HIV so as to make lose the infectivity (infectious power) of HIV. (c) Test of examining the inhibitory activity of SBA against such replication of the viral particles of HIV which is induced when a tumor necrosis factor (TNF-α) is introduced into the HIV-infected A3.01 cells AIDS virus, HIVBRU (its reverse transcriptase activity, 0.03 cpm/cell) and 6 x 10^6 cells of the A3.01 cell (HAT-susceptible CEM cell strain) were mixed and reacted together in a culture medium at 37°C for 1 hour, and thereafter the mixed cells were washed with PBS to remove the excess of the particles of HIV virus therefrom. The A3.01 cells (5 x 10^5 cells) which had been so infected with HIV were then cultivated in various culture media containing TNF-α and SBA at different concentrations of them. The amount of the HIV-p24 antigen (an HIV-structural protein of HIV) which was released in the culture supernatant from the cultivated cells under test was periodically measured during the period of between 0 day to 5th day of the cultivation. The culture medium used for the above-mentioned cultivation of the A3.01 cells was an RPM1-1640 medium comprising 10% of heat-treated embryonic bovine serum, and minor amounts of penicillin, streptomycin, glutamine and mercaptoethanol. The amount of the HIV-p24 antigen produced was measured with lapse of time, and the relationship of the amount of the HIV-p24 antigen to the concentration of SBA is summarily tabulated in Table 4 below.
In the tests above, the replication of the viral particles of HIV was examined in terms of the amount of the p24 antigen protein produced and appearing in the culture supernatant from the cultivated cells. Thus, the amount of the p24 antigen produced was measured periodically over 6 days after the A3.01 cells were infested with HIV. It was then observed that in the absence of SBA, the replication of the viral particles of HIV was induced in the A3.01 cells by stimulation with 10 units/ml of TNF-α added. […] Thus, the effective amount of SBA has the activity to inhibit the replication of the viral particles of HIV within the cells to an extent as same as AZT, and from this it is expected that SBA is useful similarly to AZT for the therapeutic treatments of AIDS. (d) Tests for evaluating an inhibitory activity of SBA to the formation of giant cells from HIV-infected Molt-4 cells In a similar manner to that in the above Test (c), Molt-4 cells (a CD4-positive human T-cell strain) were infected with AIDS virus, HIVBRU. Thereafter, The HIV-infected Molt-4 cells were mixed with such Molt-4 cells which had no HIV-infection. And the mixture of these cells were cultivated at a high density of the mixed cells in the above-mentioned improved RPM1-1640 medium containing SBA at its different concentrations. Whereupon, there was examined the presence of cell-fused cell(s) (namely, the giant cells) which were formed by fusion of the HIV-infected cells with each other or by fusion of the HIV-infected cells with the HIV-non-infected cells. The formation and appearance of the giant cells was confirmed by microscopic observation. The size of such giant cells is clearly different from the size of the other usual cells. […] Namely, it is shown that SBA has an anti-HIV activity. […] In the initial stage of the transcription of HIV-1 gene, said NFkB, i.e. the transcription regulating factor of the host cells, plays an important role. […] NFkB is known to be a complex protein which is composed by the association of a molecule of protein having a molecular weight of about 50,000 (p50) with a molecule of protein having a molecular weight of about 65,000 (p65). […]

Measured: Amount of the HIV p24 antigen

Cc1cn([C@H]2C[C@H](N=[N+]=[N-])[C@@H](CO)O2)c(=O)[nH]c1=O [AZT, azidothymidine, reference compound]
0 pg/mL: 0th day | 1st day | 2nd day | 3rd day | 4th day | 5th day
